Data set [1] has as its system Puro-incorporated proteins in HCT116, HT29, CCD841-CoN and Caco-2 cells. The data set can be described thus: Immunoblotting of Puro-incorporated proteins in cell lysates. Type of data set: cell-based, human. The note with it: Puro 2.1 μM, 16 h, with or without TSA 0.5 μM. The protocol:
FIG. 27. Levels of Puro-incorporated proteins in the cells were monitored by immunoblotting. Indicated cell lines were treated either with vehicle control DMSO or Boc-KAc-Puro (16.9 μM) in the presence or absence of TSA (0.5 μM) for 20 h, followed by preparation of cell lysates. The lower panel (anti-α-Tubulin) serves as a loading control.
FIG. 28. Levels of Puro-incorporated proteins in the cells were monitored by immunoblotting. Indicated cell lines were treated either with vehicle control DMSO or Puro (2.1 μM) in the presence or absence of TSA (0.5 μM) for 16 h, followed by preparation of cell lysates. […] The lower panel (anti-α-Tubulin) serves as a loading control.
Cultured cells or tissue samples were sonicated in RIPA lysis buffer (1% NP-40, 0.1% SDS, 50 mM Tris-HCl pH 7.4, 150 mM NaCl, 0.5% sodium deoxycholate, 1 mM EDTA) supplemented with PMSF and protease inhibitor cocktail (Roche) on ice followed by clarification. Protein lysates were separated on sodium dodecyl sulfate-polyacrylamide gels and transferred onto nitrocellulose membranes (Whatman). The primary antibodies used were anti-puromycin (3RH11, KeraFAST) and anti-α-tubulin (Sigma-Aldrich). Proteins of interest were detected with anti-mouse secondary antibody by chemiluminescence (ECL Kit, GE Healthcare Life Sciences).
Background: In western blotting, separated proteins are transferred to a membrane and probed.

The conditions of data set [2]: single administration, cited from earlier work.
Data set [3] concerns non-malignant Caco-2 cells. The data set can be described thus: MTS cell viability assay, Caco-2. Type of data set: cell-based, human. Particulars: parental Puro, MTS, 3 d. The protocol: FIG. 13. Inhibition of cell viability by BKAc-Puro is presented in dose-response curve format for the same cell lines as in FIG. 8. The cell lines were treated with DMSO or the indicated doses of agent (4.22, 8.44, 16.9, 33.8, 67.5, or 135 μM) for 5 d followed by MTS assay. Data represent mean values of triplicate measurements±s.d. (n=3). IC50 values were fit by logistic regression.
FIG. 14. Inhibition of cell viability by parental Puro. The cell lines were treated with the indicated doses of Puro (0, 1.1, 2.1, 4.2, or 8.4 μM) for 3 d followed by MTS assay. Data represent mean values of triplicate measurements±s.d.
Cell number was determined by cell counting using improved Neubauer hemacytometer. Cell viability was calculated as the number of viable cells divided by the total number of cells using Trypan Blue Stain (Invitrogen) to distinguish non-viable cells. Data were obtained from duplicated samples with quadruplicate measurements. MTS based cell viability assay was performed using CellTiter 96 Aqueous Cell Proliferation Assay (Promega) according to the manufacturer's instruction. Either 1 μl of DMSO alone or variable concentrations of BKAc-Puro or Puro in DMSO were added to the cell lines seeded at 5×10^4 cells per well in 96-well tissue culture plates in 100 μl of the growth medium, followed by 3-5 d incubation at 37° C. with 5% CO2 atmosphere. Then 20 μl of the MTS reagent was added to each well. After additional 2-3 h incubation, the absorbance of the formazan at 490 nm was measured by the microplate reader. Percent cell viability was expressed relative to the wells containing cells treated with DMSO alone. Data were obtained from triplicate measurements. […] Determination of non-viable cells using PI staining was performed by adding 1 μg/ml of PI solution (Sigma) to the cell culture, prior to the examination under fluorescence microscopy (Axiovert 3, Carl Zeiss) through a×32 objective equipped with a digital imaging processor (Infinity 3, Lumenera).
(In general: Formazan colour is commonly taken as a measure of viable cells.)

Another data set has as its system BxPC3 cells (shGFP). Description: MTT cell viability assay, BxPC3 shGFP. It counts as cell-based. Particulars: Homo sapiens, BXPC-3, 72 hr. Here is the method: (§1) FIG. 24. Effect of the prodrug on cell viability of BxPC3 cells (shGFP and shSki). Cells were treated with the indicated dose of drugs (BKAc-5FCR or 5FCR) for 72 hr followed by MTT assay. Data represent mean values of triplicate measurements±standard deviation. IC50 values were derived from nonlinear curve fit of the dose response data using an outlier's exclusion, variable slope model (GraphPad Prism software). All values are means of at least two independent experiments.
(§2) The in vitro efficacy of the compounds in a series of BxPC3 and CFPac-1 derivatives with reduced Class I HDAC activity following Ski knockdown (shSki), HDAC3 knockdown and control (shGFP) was assessed. The growth inhibitory/viability effects of the compounds (IC50 value, the concentration resulting in 50% growth inhibition) on the various cell lines were determined by dose response curve analysis (GraphPad Prism software) of MTT [3-(4,5dimethylthiazol-2-yl)-2,5-diphenyl-tetrazolium bromide] cell viability assay. If the prodrugs are activated in an HDAC-dependent manner, the cells with reduced HDAC activity would be predicted to be more resistant to the prodrug treatment than control cells, while the effect of free parental drugs on both cells would be expected to be similar.

Another data set relates to BxPC3 cells (shSki). Description: MTT cell viability assay, BxPC3 shSki. The note with it: Homo sapiens, BXPC-3, 72 hr. Type of data set: cell-based. Here is the method:
as §1, §2

The next data set relates to cells. Description: 72 hr in vitro cytotoxicity with TSA. It counts as cell-based. Particulars: TSA 1 μM. From the text: The prodrugs that are synthesized may have some basal level of cytotoxicity before they are activated by HDAC3. One way to determine the IC50 values of the uncleaved forms of the prodrugs would be to use HDAC inhibitors both in vitro and in vivo. […] […] […] For example, among available HDAC inhibitors, SAHA (Vorinostat), a FDA approved pharmaceutical HDAC inhibitor (Bradner, J. E. et al. 2010), is known to inhibit all of these HDACs with much lower cytotoxicity than TSA. Thus, SAHA is an alternative HDAC inhibitor for the prodrug evaluation as well. By comparing the prodrug ICo values for cytotoxicity under conditions of HDAC inhibition with those values where HDACs are active we are able to provide data on the HDAC dependence of our new class of prodrugs.

Data set [4] relates to HDAC and endogenous protease (cathepsin L) activity in BxPC3 and CFPac-1 cells. Description: Live cell enzymatic assay with Boc-Lys(Ac)-AMC, release of AMC. It counts as cell-based. Particulars: for Activation of substrate Boc-Lys(Ac)-AMC: substrate 25 μM, 6 hr. Here is the method:
FIG. 5. A. HDAC assay using different substrates in BxPC3 cells (shGFP and shSki). Cells were incubated with Boc-Lys(Ac)-AMC or Ac-Arg-Gly-Lys(Ac)-AMC (25 μM) for 1 hr with DMSO (vehicle) or TSA (1 μM) as indicated, followed by cell lysis and trypsin treatment, and fluorescence measurements. Data represent mean values of triplicate measurements±standard deviation. RFU, relative fluorescent units. B. Similar experiment was done as in A but without cell lysis and trypsin treatment. Cells were incubated with the substrates for 2.5 hr.
FIG. 6. A. Release of AMC by combined HDAC and endogenous protease-dependent enzymatic reaction in BxPC3 and CFPac-1 cells (shGFP and shSki). Cells were incubated with substrate Boc-Lys(Ac)-AMC (25 μM) for 6 hr with DMSO (vehicle), TSA (1 μM), or Z-FY-CHO (10 μM) as indicated, followed by fluorescence measurements. Data represent mean values of triplicate measurements±standard deviation. RFU, relative fluorescent units. B. Time course of AMC release in BxPC3 cells (shGFP and shSki). Each cells were incubated with Boc-Lys(Ac)-AMC (25 μM) for 2.5, 6.0, and 23 hr with DMSO (vehicle) or TSA (1 μM) as indicated.
Tissue culture based standard HDAC assays were performed by commercially available fluorimetric HDAC assay kit (SensoLyte, AnaSpec) according to the manufacturer's instruction with modification of using 25 μM Boc-Lys(Ac)-AMC (Bachem) as substrate and measuring parameter (Ex/Em=355 nm/460 nm) for AMC. […] After 15 m incubation at room temperature, the fluorescent signal of AMC was measured by SpectraMax M5 microplate reader (Molecular Devices) at Ex/Em=355 nm/460 nm. Live cell lysyl endopeptidase assay was performed by applying the substrate 25 μM Boc-Lys-AMC (Bachem) [either with DMSO or 100 μM Z-FY-CHO (EMD)] to the overnight culture seeded from 6×10^4 cells in 100 μl medium in 96-well tissue culture plates, followed by 20 h incubation at 37° C. with 5% CO2 atmosphere, then the fluorescent signal of AMC was measured. Live cell enzymatic assay using Boc-Lys(Ac)-AMC was performed by applying the substrate 25 μM Boc-Lys(Ac)-AMC (either with DMSO, 1 μM TSA or 100 μM Z-FY-CHO) to the overnight culture seeded from 6×10^4 cells in 100 μl medium in 96-well tissue culture plates, followed by 20 h incubation at 37° C. with 5% CO2 atmosphere, then the fluorescent signal of AMC was measured. […]
Fluorescence measurement was done at λex=390 nm and λem=460 nm for AMC. […] Cells were then lysed and the lysates incubated with exogenously added excess trypsin to cleave only those lysine residues that are de-acetylated and activate fluorescence. […]

In data set [5] the target is T1, lysyl endopeptidase activity (CTSL) in live cells (Homo sapiens, UniProt P07711).
T1 construct: endogenous in cells; host or cells: Panel of cultured lines: Caco-2, COGA-10, HCA-7, HT29, HCT116, CCD841-CoN, MiaPaca-2, BXPC-3, HepG2, HeLa (human) and Eph4 (mouse)
T1 sequence (P07711 114-288 limits assumed): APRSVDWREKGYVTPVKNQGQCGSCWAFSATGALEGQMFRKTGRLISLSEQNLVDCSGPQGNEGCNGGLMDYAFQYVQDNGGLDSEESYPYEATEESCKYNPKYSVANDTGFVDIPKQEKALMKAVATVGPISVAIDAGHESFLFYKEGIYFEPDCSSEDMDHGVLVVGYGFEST
T1 sequence (P07711 292-333 limits assumed): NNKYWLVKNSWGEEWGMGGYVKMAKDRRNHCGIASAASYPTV
Description: Live cell lysyl endopeptidase assay with Boc-Lys-AMC. Type of data set: cell-based. Particulars: Z-FY-CHO 100 μM, substrate 25 μM, 20 h. The protocol: FIG. 2. Comparative live cell lysyl endopeptidase activity of the same cell lines as in FIG. 1 using substrate Boc-Lys-AMC either with vehicle control DMSO or Z-FY-CHO (100 μM). Data represent mean values of triplicate measurements±s.d. RFU, relative fluorescent units.
Tissue culture based standard HDAC assays were performed by commercially available fluorimetric HDAC assay kit (SensoLyte, AnaSpec) according to the manufacturer's instruction with modification of using 25 μM Boc-Lys(Ac)-AMC (Bachem) as substrate and measuring parameter (Ex/Em=355 nm/460 nm) for AMC. Basically, HDAC substrate 25 μM Boc-Lys(Ac)-AMC [either with DMSO or 1 μM TSA (Sigma)] was applied to the overnight culture seeded from 6×10^4 cells in 100 μl medium in 96-well tissue culture plates, followed by 2 to 3 h incubation at 37° C. with 5% CO2 atmosphere. […] After 15 m incubation at room temperature, the fluorescent signal of AMC was measured by SpectraMax M5 microplate reader (Molecular Devices) at Ex/Em=355 nm/460 nm. Live cell lysyl endopeptidase assay was performed by applying the substrate 25 μM Boc-Lys-AMC (Bachem) [either with DMSO or 100 μM Z-FY-CHO (EMD)] to the overnight culture seeded from 6×10^4 cells in 100 μl medium in 96-well tissue culture plates, followed by 20 h incubation at 37° C. with 5% CO2 atmosphere, then the fluorescent signal of AMC was measured. […]

The test system of the next data set is BXPC3 cells. Description: MTS cell viability assay with or without TSA. Type of data set: cell-based, human. The note with it: 20 μM, 72 hr, TSA 50 nM. Here is the method: FIG. 25. Selective cytotoxicity by BKAc-5FCR. Human pancreatic BXPC3 cells were treated with DMSO (vehicle), BKAc-5FCR (20 μM), or 5FCR (20 μM) for 72 hr with or without TSA (50 nM) followed by MTS cell viability assay. Representative phase contrast images of cells treated with DMSO (vehicle) or BKAc-5FCR (20 μM) for 72 hr with or without TSA (50 nM) are shown.

Like-named read-outs stand apart in the source and are kept apart here. Residues, ends and D or L forms follow the SMILES beside them. *: point of attachment. Cbz = O=C(OCc1ccccc1)*

A word on the LD50: it is the dose at which mortality reaches 50%. Consider `COc1ccc(C[C@H](N)C(=O)N[C@H]2[C@@H](O)[C@H](n3cnc4c(N(C)C)ncnc43)O[C@@H]2CO)cc1` [Puro, puromycin], for which, in data set [1], the “Puro incorporation between cell lines regardless of TSA treatment” value is recorded as “no difference”. The LD50 in [2] (intraperitoneally) was 580 mg/kg; in data set [2] (intravenously), 335 mg/kg; in data set [2] (orally), 720 mg/kg. Moreover, the “Effect on cell viability” value in data set [3] is “effective”.

Broadly, the IC50 is the point on the concentration scale where inhibition reaches its midpoint. The low end stands for inhibition by little substance, the high end for a need for much substance. As for `Nc1nc(=O)n([C@@H]2O[C@H](CO)[C@@H](O)[C@H]2O)cc1F` [5FCR, 5-fluorocytidine], the IC50 in the data set with BxPC3 cells (shGFP) was 1300 nM; in the data set on BxPC3 cells (shSki), 1200 nM.

Turning to `CC(/C=C/C(=O)NO)=C\[C@@H](C)C(=O)c1ccc(N(C)C)cc1` [TSA, Trichostatin A], the Cytotoxicity entry in the data set with cells was “cytotoxic effect”. Further, the “Activation of substrate Boc-Lys(Ac)-AMC” value in data set [4] (TSA 1 μM) is “completely inhibited activation”.

For the compound `O=C[C@H](Cc1ccc(O)cc1)NC(=O)[C@H](Cc1ccccc1)NC(=O)OCc1ccccc1` [Z-FY-CHO] (Cbz-Phe-Tyr-aldehyde), the “Release of AMC” value in data set [5] is “significantly blocked”. Further, in [4] (Z-FY-CHO 10 μM), the “Activation of substrate Boc-Lys(Ac)-AMC” value was “completely abrogated”.

Turning to `CC(=O)NCCCCC(NC(=O)OC(C)(C)C)C(=O)Nc1nc(=O)n([C@@H]2O[C@H](CO)[C@@H](O)[C@H]2O)cc1F` (stereo partly drawn) [BKAc-5FCR, t-butyl (6-acetamido-1-((1-((2R,3R,4S,5R)-3,4-dihydroxy-5-(hydroxymethyl)tetrahydrofuran-2-yl)-5-fluoro-2-oxo-1,2-dihydropyrimidin-4-yl)amino)-1-oxohexan-2-yl) carbamate], the “Cytotoxic effect in the presence of HDAC inhibitor TSA” value with BXPC3 cells was “substantially compromised”.

Regarding `CC(=O)NCCCC[C@H](NC(=O)OC(C)(C)C)C(=O)Nc1ccc2c(C)cc(=O)oc2c1` [Boc-Lys(Ac)-AMC], the “Time course of AMC release” value in [4] (BxPC3, 25 μM, over 20 hr) is recorded as “released linearly”. In addition, in data set [4] (BxPC3 live cells, 25 μM, 2.5 hr, without lysis and trypsin), the “Activation in live cells relative to total HDAC activity” value is listed as “approximately 50%”.

The record behind these values is patent US20160184459A1, “CANCER CELL SPECIFIC IMAGING PROBES AND METHODS OF USE” (THE RESEARCH FOUNDATION FOR THE STATE UNIVERSITY OF NEW YORK, priority 2013, published 2016).
